Structures are written as SMILES. “And” between values parts separate entries of the source, which are not always exact repeats. Equal entries are not always repeated.

The IC50 is the concentration needed to halve the response being measured.

The assay relates to ATF4 translation (ATF4 pathway), SH-SY5Y-ATF4-NanoLuc cells. Description: ATF4 cell based assay (ATF4 5'-UTR NanoLuc luciferase reporter, Thapsigargin induced cellular stress). The settings on record: SH-SY5Y-ATF4-NanoLuc cells challenged with Thapsigargin for 14-18 hours; average of two or more experimental runs; read-out: average ATF4 pathway inhibitory activity (IC50). The source says:
The ATF4 reporter assay measures the effect of Thapsigargin induced cellular stress on ATF4 expression. For this reporter assay, a stable cell line was created by transfecting SH-SY5Y cells with a plasmid containing the NanoLuc® luciferase gene fused to the 5′-UTR of ATF4, under the control of the CMV promoter. The ATF4 5′-UTR contains two open reading frames which mediate the cellular stress-dependent translation of the reporter gene. Clones stably expressing the reporter construct were isolated and selected based on the luminescence response to thapsigargin and inhibition of this signal by test compounds. Briefly, SH-SY5Y-ATF4-NanoLuc cells were challenged with Thapsigargin for 14-18 hours to determine the stress effect with or without test compounds.
Cells were propagated in growth media consisting of 90% DMEM F12 (InVitrogen #11320-033), 10% Fetal Bovine Serum (Gibco #10438-026), 5 mM Glutamax (Gibco #35050-061), 5 mM Hepes, (Gibco #15630-080), and 0.5 mg/ml Geneticin (Gibco #10131-027). Cells were prepared for the assay by removing all media from cells, washing the plated cells with phosphate buffered saline, and detached by adding a solution comprised of 10% Tryple express solution (InVitrogen12604-021) and 90% enzyme-free cell dissociation buffer HANKS base (Gibco 13150-016). The trypsin was deactivated by adding assay media comprised of 90% phenol-red free DMEM F12 (InVitrogen, 11039), 10% Fetal Bovine Serum (Gibco #10438-026), (5 mM Glutamax (Gibco #35050-061), 5 mM Hepes, (Gibco #15630-080), and 0.5 mg/ml Geneticin (Gibco #10131-027). Suspended cells were spun down at 300 g for 5 min, the supernatant was removed and the cell pellet was suspended in warm media (30-37° C.) comprised as above at (1e6 cell/ml).
Assay plates were prepared by adding 250 nL of compound stock solution in 100% DMSO to each well, followed by dispensing 20 microliters/well cell suspension to deliver 15-20 k cell/well. Cells were incubated for 1 hour at 37° C. Then, 5 μL of 1.5 μM or 1 μM of Thapsigargin (final concentration: 200-300 nM) was added to each well of cells. Assay plates containing cells were incubated for 14-18 hours at 37° C.
The measurement of luciferase produced by the ATF4 constructs was measured as follows. Aliquots of the Nano-Glo reagent (Nano-Glo® Luciferase Assay Substrate, Promega, N113, Nano-Glo® Luciferase Assay Buffer, Promega, N112 (parts of Nano-Glo® Luciferase Assay System, N1150) were brought to room temperature, the substrate and buffer were mixed according to manufacturer's instructions. The cell plates were equilibrated to room temperature. 25 microliters/well of the mixed Nano-Glo reagent were dispensed into assay wells and pulse spun to settle contents and the plate was sealed with film. The plates were incubated at room temperature for 1 hour before detecting luminescence on an Envision plate reader.
Compounds of the invention are tested for activity against ATF4 translation in the above assay.
`O=C(COc1ccc(Cl)cc1)NOC1CCN(C(=O)C2CC2c2ccc(Cl)cc2)C1` (centres unmarked) [Example 34, 2-(4-chlorophenoxy)-N-((1-(2-(4-chlorophenyl)cyclopropane-1-carbonyl)pyrrolidin-3-yl)oxy)acetamide]: the IC50 lay within 0.101 to 1 µM.
As for `O=C(COc1ccc(Cl)cc1)NOC1CCN(C(=O)CCOc2ccc(Cl)cc2)C1` (centres unmarked) [Example 35, 2-(4-chlorophenoxy)-N-((1-(3-(4-chlorophenoxy)propanoyl)pyrrolidin-3-yl)oxy)acetamide], the IC50 is below 0.1 µM.
As for `O=C(COc1ccc(Cl)cc1)NCC1(F)CCN(C(=O)COc2ccc(Cl)cc2)C1` (centres unmarked) [Example 36, 2-(4-chlorophenoxy)-N-((1-(2-(4-chlorophenoxy)acetyl)-3-fluoropyrrolidin-3-yl)methyl)acetamide], the figure is 0.101 to 1 µM; as for `O=C(COc1ccc(Cl)cc1)N[C@H]1[C@@H]2CN(C(=O)C3CC3c3ccc(Cl)cc3)C[C@@H]21` (stereo partly drawn) [Example 37, 2-(4-chlorophenoxy)-N-((1R,5S,6s)-3-(2-(4-chlorophenyl)cyclopropane-1-carbonyl)-3-azabicyclo[3.1.0]hexan-6-yl)acetamide], < 0.1 µM and 0.0695 µM.
With `O=C(COc1ccc(Cl)cc1)NCC1CCN(C(=O)CCCc2ccc(Cl)cc2)C1` (centres unmarked) [Example 38, 2-(4-chlorophenoxy)-N-((1-(4-(4-chlorophenyl)butanoyl)pyrrolidin-3-yl)methyl)acetamide], the IC50 was below 0.1 µM.
Next, `CC1CC(CNC(=O)COc2ccc(Cl)cc2)CN1C(=O)COc1ccc(Cl)cc1` (centres unmarked) [Example 39, 2-(4-chlorophenoxy)-N-((1-(2-(4-chlorophenoxy)acetyl)-5-methylpyrrolidin-3-yl)methyl)acetamide]: 0.101 to 1 µM; `O=C(COc1ccc(Cl)cc1)NCC1CCN(C(=O)C2CC2c2ccc(Cl)cc2)C1` (centres unmarked) [Example 40, 2-(4-chlorophenoxy)-N-((1-(2-(4-chlorophenyl)cyclopropanecarbonyl)pyrrolidin-3-yl)methyl)acetamide]: below 0.1 µM; `O=C(COc1ccc(Cl)cc1)NCC1(F)CCN(CCOc2ccc(Cl)cc2)C1` (centres unmarked) [Example 42, 2-(4-chlorophenoxy)-N-((1-(2-(4-chlorophenoxy)ethyl)-3-fluoropyrrolidin-3-yl)methyl)acetamide]: 0.101 to 1 µM.
As to `CC1(CNC(=O)COc2ccc(Cl)cc2)CCN(CCOc2ccc(Cl)cc2)C1` (centres unmarked) [Example 43, 2-(4-chlorophenoxy)-N-((1-(2-(4-chlorophenoxy)ethyl)-3-methylpyrrolidin-3-yl)methyl)acetamide], the IC50 was below 0.1 µM.
`O=C(COc1ccc(Cl)c(Cl)c1)NCC1CCN(CCCOc2ccc(Cl)cc2)C1` (centres unmarked) [Example 44, N-((1-(3-(4-chlorophenoxy)propyl)pyrrolidin-3-yl)methyl)-2-(3,4-dichlorophenoxy)acetamide]: the IC50 was below 0.1 µM.
As for `O=C(COc1ccc(C(F)(F)F)cc1)NCC1CCN(CCCOc2ccc(Cl)cc2)C1` (centres unmarked) [Example 45, N-((1-(3-(4-chlorophenoxy)propyl)pyrrolidin-3-yl)methyl)-2-(4-(trifluoromethyl)phenoxy)acetamide], the figure is below 0.1 µM; as for `O=C(COc1ccc(F)cc1Cl)NCC1CCN(CCCOc2ccc(Cl)cc2)C1` (centres unmarked) [Example 46, 2-(2-chloro-4-fluorophenoxy)-N-((1-(3-(4-chlorophenoxy)propyl)pyrrolidin-3-yl)methyl)acetamide], 0.101 to 1 µM.
As for `Cc1cc(OCC(=O)NCC2CCN(CCCOc3ccc(Cl)cc3)C2)ccc1Cl` (centres unmarked) [Example 47, 2-(4-chloro-3-methylphenoxy)-N-((1-(3-(4-chlorophenoxy)propyl)pyrrolidin-3-yl)methyl)acetamide], the 50% inhibitory concentration (IC50) was below 0.1 µM.
As for `O=C(COc1ccc(Cl)cc1)NCC1CCN(CCCOc2ccc(F)cc2)C1` (centres unmarked) [Example 49, 2-(4-chlorophenoxy)-N-((1-(3-(4-fluorophenoxy)propyl)pyrrolidin-3-yl)methyl)acetamide], the figure is 0.101 to 1 µM; as for `O=C(COc1ccc(Cl)cc1)NCC1CCN(CCCOc2cccc(Cl)c2)C1` (centres unmarked) [Example 50, 2-(4-chlorophenoxy)-N-((1-(3-(3-chlorophenoxy)propyl)pyrrolidin-3-yl)methyl)acetamide], 0.101 to 1 µM; as for `O=C(COc1ccc(Cl)nc1)N[C@H]1[C@@H]2CN(CCCOc3ccc(Cl)cc3)C[C@@H]21` [Example 51, N-((1R,5S,6s)-3-(3-(4-chlorophenoxy)propyl)-3-azabicyclo[3.1.0]hexan-6-yl)-2-((6-chloropyridin-3-yl)oxy)acetamide], below 0.1 µM.
Next, `O=C(COc1ccc(Cl)cn1)N[C@H]1[C@@H]2CN(CCCOc3ccc(Cl)cc3)C[C@@H]21` [Example 52, N-((1R,5S,6s)-3-(3-(4-chlorophenoxy)propyl)-3-azabicyclo[3.1.0]hexan-6-yl)-2-((5-chloropyridin-2-yl)oxy)acetamide]: below 0.1 µM; `O=C(COc1ccc(Cl)cc1)N[C@H]1[C@@H]2CN(CCCOc3ccc(Cl)cn3)C[C@@H]21` [Example 53, 2-(4-chlorophenoxy)-N-((1R,5S,6s)-3-(3-((5-chloropyridin-2-yl)oxy)propyl)-3-azabicyclo[3.1.0]hexan-6-yl)acetamide]: 0.101 to 1 µM; `O=C(COc1ccc(Cl)c(F)c1)NCC1CCN(CCCOc2ccc(Cl)cc2)C1` (centres unmarked) [Example 55, 2-(4-chloro-3-fluorophenoxy)-N-((1-(3-(4-chlorophenoxy)propyl)pyrrolidin-3-yl)methyl)acetamide]: below 0.1 µM.
As to `O=C(COc1ccc(Cl)cn1)NCC1CCN(CCCOc2ccc(Cl)cc2)C1` (centres unmarked) [Example 56, N-((1-(3-(4-chlorophenoxy)propyl)pyrrolidin-3-yl)methyl)-2-((5-chloropyridin-2-yl)oxy)acetamide], the IC50 is 0.101 to 1 µM.
Next, `Cc1cc(OCCCN2CCC(CNC(=O)COc3ccc(Cl)cc3)C2)ccc1Cl` (centres unmarked) [Example 57, N-((1-(3-(4-chloro-3-methylphenoxy)propyl)pyrrolidin-3-yl)methyl)-2-(4-chlorophenoxy)acetamide]: below 0.1 µM; `CC1C[C@H](CNC(=O)COc2ccc(Cl)cc2)CN1CCCOc1ccc(Cl)cc1` (stereo partly drawn) [Example 58, 2-(4-chlorophenoxy)-N-(((3R)-1-(3-(4-chlorophenoxy)propyl)-5-methylpyrrolidin-3-yl)methyl)acetamide]: 0.101 to 1 µM.
As for `O=C(COc1ccc(Cl)cc1)NCC1(F)CCN(CCCOc2ccc(Cl)cc2)C1` (centres unmarked) [Example 60, 2-(4-chlorophenoxy)-N-((1-(3-(4-chlorophenoxy)propyl)-3-fluoropyrrolidin-3-yl)methyl)acetamide], the figure is 0.101 to 1 µM.
As for `O=C(COc1ccc(Cl)cc1)NCC1CCN(CCCOc2ccc(Cl)c(Cl)c2)C1` (centres unmarked) [Example 61, 2-(4-chlorophenoxy)-N-((1-(3-(3,4-dichlorophenoxy)propyl)pyrrolidin-3-yl)methyl)acetamide], the 50% inhibitory concentration (IC50) was below 0.1 µM.
Next, `O=C(COc1ccc(Cl)cc1)NCC1CCN(CCCOc2ccc(Cl)cc2F)C1` (centres unmarked) [Example 62, N-((1-(3-(4-chloro-2-fluorophenoxy)propyl)pyrrolidin-3-yl)methyl)-2-(4-chlorophenoxy)acetamide]: below 0.1 µM.
As for `O=C(COc1ccc(Cl)cc1)NCC1CCN(CCCOc2ccc(C(F)(F)F)cc2)C1` (centres unmarked) [Example 63, 2-(4-chlorophenoxy)-N-((1-(3-(4-(trifluoromethyl)phenoxy)propyl)pyrrolidin-3-yl)methyl)acetamide], the figure is 0.101 to 1 µM.

These data come from patent publication US10851053B2, “Chemical compounds” (GlaxoSmithKline Intellectual Property Development Limited, priority 2016, dated 2020).
